Measured values taken from patent US6914151B1, “Crystallization processes for the formation of stable crystals of aspartame derivative” (Ajinomoto Co., Inc., priority 1998, dated 2005).

How the values were obtained:
[1] = Stability test at 70° C. of crystals (remaining ratio of N-(3,3-dimethylbutyl)-APM); format: physicochemical
Experimental: The resulting G-type crystals and A-type crystals of N-(3,3-dimethylbutyl)-APM were tested at 70° C., concerning their stability. […] The relationship between the storage time and the remaining ratio of N-(3,3-dimethylbutyl)-APM in this test will be shown below in Table 1.

[2] = on the weight basis, cited from earlier work

Remaining ratio ([1]; time elapsed 0 hrs) [wt. %] | Remaining ratio ([1]; time elapsed 52 hrs) [wt. %] | Remaining ratio ([1]; time elapsed 160 hrs) [wt. %] | Remaining ratio ([1]; time elapsed 160 hrs, listed as A-type crystals) [wt. %] | Remaining ratio ([1]; time elapsed 160 hrs, listed as G-type crystals) [wt. %] | Structure (SMILES) | sweetening potency relative to aspartame ([2]; times that of aspartame) | sweetening potency relative to sucrose ([2]; times that of sucrose (table sugar))
95 | 95 | 94 | 94 | – | COC(=O)[C@H](Cc1ccccc1)NC(=O)[C@H](CC(=O)O)NCCC(C)(C)C [A, N-[N-(3,3-dimethylbutyl)-L-α-aspartyl]-L-phenylalanine methyl ester] | – | –
96 | 87 | 34 | – | 34 | COC(=O)[C@H](Cc1ccccc1)NC(=O)[C@H](CC(=O)O)NCCC(C)(C)C [G, N-[N-(3,3-dimethylbutyl)-L-α-aspartyl]-L-phenylalanine methyl ester, reference compound] | – | –
– | – | – | – | – | COC(=O)[C@H](Cc1ccccc1)NC(=O)[C@H](CC(=O)O)NCCC(C)(C)C [N-(3,3-dimethylbutyl)-ATM, N-[N-(3,3-dimethylbutyl)-L-α-aspartyl]-L-phenylalanine methyl ester] | at least 50 times | about 10,000 times
